Article PMC10657444, “Design and evaluation of tadpole-like conformational antimicrobial peptides” (Communications Biology, 2023)
Converted amounts (≈) assume the structure as drawn. Where two headings read alike, the source gives them in different places. Non-standard residues stand in square brackets, D forms with d. Residues, ends and D or L forms follow the SMILES beside them. *: point of attachment. Octanoyl = CCCCCCCC(=O)*

How the values were obtained:
MRSA 3393 = format: cell-based, Staphylococcus aureus
Description: (§1) Bacteria were cultivated in Luria-Bertani (LB) broth.

MRSA ATCC 43300 = format: cell-based, Staphylococcus aureus
Description: as §1

MRSA USA 300 = format: cell-based, Staphylococcus aureus
Description: as §1

E. coli ATCC 25922 = format: cell-based, Escherichia coli
Description: as §1

E. coli S = format: cell-based, Escherichia coli
Description: as §1

A. baumannii 1318 = format: cell-based, Acinetobacter baumannii
Description: as §1

A. baumannii 1337 = format: cell-based, Acinetobacter baumannii
Description: as §1

K. pneumoniae 3026 = format: cell-based, Klebsiella pneumoniae
Description: as §1

[1] = test system: K. pneumoniae ATCC 700603; format: cell-based, Klebsiella pneumoniae
Description: as §1

SMILES | MIC Gram+ MRSA 3393 (MRSA 3393; 3393) [µM] | MIC Gram+ MRSA ATCC 43300 (MRSA ATCC 43300; ATCC 43300) [µM] | MIC Gram+ MRSA USA 300 (MRSA USA 300) [µM] | MIC Gram- E. coli ATCC 25922 (E. coli ATCC 25922) [µM] | MIC Gram- E. coli S (E. coli S) [µM] | MIC Gram- A. b 1318 (A. baumannii 1318) [µM] | MIC Gram- A. b 1337 (A. baumannii 1337) [µM] | MIC Gram- K. p 3026 (K. pneumoniae 3026) [µM] | MIC Gram- K. p ATCC 700603 [1] [µM] | MIC Gram+ MRSA 3393 (MRSA 3393) [µM] | MIC Gram+ MRSA ATCC 43300 (MRSA ATCC 43300) [µM]
CC[C@@H](C)[C@@H](NC(=O)[C@@H](CCCNC(=N)N)NC(=O)[C@@H](CCCNC(=N)N)NC(=O)[C@@H](CC(C)C)NC(=O)[C@@H](Cc1ccccc1)NC(=O)[C@H](N)CCCNC(=N)N)C(=O)N[C@H](Cc1ccccc1)C(=O)N[C@H](Cc1ccccc1)C(=O)N[C@H](Cc1ccccc1)C(=O)N[C@H](Cc1ccccc1)C(N)=O [D-HT2] (H-[dR][dF][dL][dR][dR][dI][dF][dF][dF][dF]-NH2; N-terminus assumed) | 6.25 (≈ 9.05 µg/mL) | 6.25 (≈ 9.05 µg/mL) | 6.25 (≈ 9.05 µg/mL) | 50 (≈ 72.4 µg/mL) | 25 (≈ 36.2 µg/mL) | 6.25 (≈ 9.05 µg/mL) | 12.5 (≈ 18.1 µg/mL) | > 100 | 100 (≈ 145 µg/mL) | – | –
CC[C@H](C)[C@H](NC(=O)[C@@H](CCCNC(=N)N)NC(=O)[C@H](CCCNC(=N)N)NC(=O)[C@H](CC(C)C)NC(=O)[C@H](Cc1ccccc1)NC(=O)[C@H](Cc1ccccc1)NC(=O)[C@H](Cc1ccccc1)NC(=O)[C@@H](N)Cc1ccccc1)C(=O)N[C@@H](Cc1ccccc1)C(N)=O [F-SHf(R^5,dR^6)] (H-FFFFLR[dR]IF-NH2; N-terminus assumed) | 3.13 (≈ 4.04 µg/mL) | 3.13 (≈ 4.04 µg/mL) | 3.13 (≈ 4.04 µg/mL) | > 100 | 25 (≈ 32.3 µg/mL) | 25 (≈ 32.3 µg/mL) | 25 (≈ 32.3 µg/mL) | > 100 | > 100 | – | –
CC[C@H](C)[C@H](NC(=O)[C@H](CCCNC(=N)N)NC(=O)[C@@H](CCCNC(=N)N)NC(=O)[C@H](CC(C)C)NC(=O)[C@H](Cc1ccccc1)NC(=O)[C@H](Cc1ccccc1)NC(=O)[C@H](Cc1ccccc1)NC(=O)[C@@H](N)Cc1ccccc1)C(=O)N[C@@H](Cc1ccccc1)C(N)=O [F-SHf(dR^5)] (H-FFFFL[dR]RIF-NH2; N-terminus assumed) | 3.13 (≈ 4.04 µg/mL) | 3.13 (≈ 4.04 µg/mL) | 3.13 (≈ 4.04 µg/mL) | > 100 | 25 (≈ 32.3 µg/mL) | 25 (≈ 32.3 µg/mL) | 25 (≈ 32.3 µg/mL) | > 100 | > 100 | – | –
CC[C@H](C)[C@H](NC(=O)[C@@H](CCCNC(=N)N)NC(=O)[C@@H](CCCNC(=N)N)NC(=O)[C@H](CC(C)C)NC(=O)[C@H](Cc1ccccc1)NC(=O)[C@H](Cc1ccccc1)NC(=O)[C@H](Cc1ccccc1)NC(=O)[C@@H](N)Cc1ccccc1)C(=O)N[C@@H](Cc1ccccc1)C(N)=O [F-SHf(dR^5, 6)] (H-FFFFL[dR][dR]IF-NH2; N-terminus assumed) | 3.13 (≈ 4.04 µg/mL) | 3.13 (≈ 4.04 µg/mL) | 3.13 (≈ 4.04 µg/mL) | > 100 | 6.25 (≈ 8.07 µg/mL) | 12.5 (≈ 16.1 µg/mL) | 25 (≈ 32.3 µg/mL) | 25 (≈ 32.3 µg/mL) | 25 (≈ 32.3 µg/mL) | – | –
CC[C@H](C)[C@H](NC(=O)[C@H](CCCNC(=N)N)NC(=O)[C@H](CCCNC(=N)N)NC(=O)[C@H](CC(C)C)NC(=O)[C@H](Cc1ccccc1)NC(=O)[C@H](Cc1ccccc1)NC(=O)[C@H](Cc1ccccc1)NC(=O)[C@H](Cc1ccccc1)NC(=O)[C@@H](N)Cc1ccccc1)C(=O)N[C@@H](Cc1ccccc1)C(N)=O [FF-SHf(R^5)] (H-FFFFFLRRIF-NH2; N-terminus assumed) | – | 1.57 (≈ 2.26 µg/mL) | 3.13 (≈ 4.5 µg/mL) | > 100 | 100 (≈ 144 µg/mL) | 50 (≈ 71.9 µg/mL) | > 100 | > 100 | > 100 | 1.57 (≈ 2.26 µg/mL) | 1.57 (≈ 2.26 µg/mL)
CCCCCCCC(=O)N[C@@H](Cc1ccccc1)C(=O)N[C@@H](CC(C)C)C(=O)N[C@@H](CO)C(=O)N[C@@H](CCCNC(=N)N)C(=O)N[C@H](C(=O)N[C@@H](Cc1ccccc1)C(N)=O)[C@@H](C)CC [OA-SHf] (Octanoyl-FLSRIF-NH2) | > 100 | 50 (≈ 45.4 µg/mL) | > 100 | > 100 | > 100 | > 100 | > 100 | > 100 | > 100 | – | –
CC[C@H](C)[C@H](NC(=O)[C@H](CCCNC(=N)N)NC(=O)[C@H](CCC(=O)O)NC(=O)[C@H](CC(C)C)NC(=O)[C@H](Cc1ccccc1)NC(=O)[C@H](Cc1ccccc1)NC(=O)[C@@H](N)Cc1ccccc1)C(=O)N[C@@H](Cc1ccccc1)C(N)=O [SHf(E^5)] (H-FFFLERIF-NH2; N-terminus assumed) | > 100 | > 100 | > 100 | > 100 | > 100 | > 100 | > 100 | > 100 | > 100 | – | –
CC[C@H](C)[C@H](NC(=O)[C@H](CCCNC(=N)N)NC(=O)[C@H](CO)NC(=O)[C@H](CC(C)C)NC(=O)[C@H](Cc1ccccc1)NC(=O)[C@H](Cc1ccccc1)NC(=O)[C@@H](N)Cc1ccc(O)cc1)C(=O)N[C@@H](Cc1ccccc1)C(N)=O [SHf(Y^1)] (H-YFFLSRIF-NH2; N-terminus assumed) | – | > 100 | – | > 100 | > 100 | > 100 | > 100 | > 100 | > 100 | – | –
CC[C@H](C)[C@H](NC(=O)[C@H](CCCNC(=N)N)NC(=O)[C@H](CO)NC(=O)[C@H](CC(C)C)NC(=O)[C@H](Cc1ccccc1)NC(=O)[C@@H](N)Cc1ccccc1)C(=O)N[C@@H](Cc1ccccc1)C(N)=O [SHfΔ1F] (H-FFLSRIF-NH2) | > 100 | > 100 | > 100 | > 100 | > 100 | > 100 | > 100 | > 100 | > 100 | – | –
CC[C@H](C)[C@H](NC(=O)[C@H](CCCNC(=N)N)NC(=O)[C@H](CO)NC(=O)[C@H](CC(C)C)NC(=O)[C@@H](N)Cc1ccccc1)C(=O)N[C@@H](Cc1ccccc1)C(N)=O [SHfΔ2F] (H-FLSRIF-NH2; N-terminus assumed) | > 100 | > 100 | > 100 | > 100 | > 100 | > 100 | > 100 | > 100 | > 100 | – | –
CC[C@H](C)[C@H](NC(=O)[C@H](CCCNC(=N)N)NC(=O)[C@H](CCCNC(=N)N)NC(=O)[C@H](CC(C)C)NC(=O)[C@H](Cc1ccccc1)NC(=O)[C@H](Cc1ccccc1)NC(=O)[C@H](Cc1ccccc1)NC(=O)[C@@H](N)Cc1ccc(O)cc1)C(=O)N[C@@H](Cc1ccccc1)C(N)=O [Y-SHf(R^5)] (H-YFFFLRRIF-NH2; N-terminus assumed) | 3.13 (≈ 4.09 µg/mL) | 3.13 (≈ 4.09 µg/mL) | 6.25 (≈ 8.17 µg/mL) | 50 (≈ 65.4 µg/mL) | > 100 | > 100 | 50 (≈ 65.4 µg/mL) | > 100 | > 100 | – | –
CC[C@H](C)[C@H](NC(=O)[C@H](CCCNC(=N)N)NC(=O)[C@H](CO)NC(=O)[C@H](CC(C)C)NC(=O)[C@H](Cc1ccccc1)NC(=O)[C@H](Cc1ccccc1)NC(=O)[C@H](Cc1ccc(O)cc1)NC(=O)[C@@H](N)Cc1ccc(O)cc1)C(=O)N[C@@H](Cc1ccccc1)C(N)=O [Y-SHf(Y^1)] (H-YYFFLSRIF-NH2; N-terminus assumed) | – | – | – | > 100 | > 100 | > 100 | > 100 | > 100 | > 100 | – | –
